{"source": "patent US20240009218A1", "about": "“COMPOSITIONS AND METHODS USING A COMBINATION OF OLEUROPEIN AND QUERCETIN FOR USE IN CARTILAGE DEGENERATION” (SOCIETE DES PRODUITS NESTLE S.A., priority 2020, published 2024)", "type_in_all_cases": "cell-based", "key": {"SW1353 cells [1]": {"test_system": "SW1353 cells", "test": "Chondrocyte function by western blot (collagen-IIα1, MMP3, MMP13) in SW1353 cells", "details": "SW1353 cells treated with IL-1β 24 h or 48 h vs control", "procedure": "To validate the effect of the pro-inflammatory cytokine Interleukin-1β as an osteoarthritis-mimetic in a chondrocyte cellular model and to test the effect of the mitochondrial calcium uniporter (MCU) ablation on chondrocyte function, the inventors measured chondrocyte function and mitochondrial function in SW1353 cells. SW1353 cells were purchased from ATCC. SW1353 cells were seeded in 96-well plates at a density of 10 000 cells per well […] (for mitochondrial calcium measurement) or at a density of 1 000 000 cells (for western blots). Cells were cultured in […] (DMEM, Gibco), high glucose, with 10% fetal calf serum and 1% Penicillin-Streptomycin.\nTo assess chondrocyte function, the expression of collagen-IIα1, aggrecan, metalloproteinase-3 and -13 (MMP3 and MMP13), were analyzed by western blotting. SW1353 cells were treated or not with 10 ng/ml Interleukin-1b for 24 h or 48 h. Protein extracts were prepared in an appropriate buffer containing 150 mM NaCl, 1.0% IGEPAL CA-630, 0.5% sodium deoxycholate, 0.1% SDS, 50 mM Tris, pH 8.0, Complete EDTA-free protease inhibitor mixture (Roche), 1 mM PMSF, 1 mM NaVO3, 5 mM NaF and 3 mM β-glycerophosphate and phosphatase inhibitors (Roche). 40 μg of total proteins were loaded, according to BCA quantification. Proteins were separated by SDS-PAGE electrophoresis, in commercial 4-12% acrylamide gels (Thermo Fisher Scientific) and transferred onto PVDF membranes (Thermo Fisher Scientific) by wet electrophoretic transfer. Blots were blocked 1 hour at RT with 5% bovine serum albumin (Sigma-Aldrich) in TBS-tween (0.5M Tris, 1.5M NaCl, 0.01% Tween) solution and incubated overnight at 4° C. with primary antibodies. Secondary antibodies were incubated 1 hr at RT. The following antibodies were used: anti-collagen-II al (1:1000, Abcam), anti-aggrecan (1:1000, Abcam), anti-MMP-3 (1:1000, Abcam), anti-MMP-13 (1:1000, Abcam). […] Then the content collagen-IIα1, aggrecan, MMP3 and MMP13 were quantified with densitometry and normalized on the content of GAPDH (detected with anti-GAPDH, 1:5000, Cell Signaling)"}, "SW1353 cells [2]": {"test_system": "SW1353 cells", "test": "Mitochondrial calcium rise in SW1353 chondrocytes, IL-1β osteoarthritic model (mitochondrial aequorin)", "details": "SW1353 cells treated with IL-1β vs control", "procedure": "To test the effect of oleuropein (or oleuropein aglycone), quercetin and their combination in living cells, the inventors measured mitochondrial calcium elevation in HeLa cells. HeLa cells were purchased from ATCC. HeLa cells were seeded in 96-well plates at a density of 50000 cells per well in minimal essential medium (DMEM, Gibco), high glucose, +10% fetal calf serum. Mitochondrial calcium measurements were carried out using Hela cells infected with the adenovirus (from Sirion biotech) expressing the mitochondrially targeted calcium sensor mitochondrial mutated aequorin (Montero et al., 2004). […] Luminescence was measured at the FLIPR Tetra Aequorin (Molecular Devices). […] Calibration of the luminescence data into calcium concentration was carried out using an algorithm, as described previously (Alvarez & Montero, 2002). Custom module analysis based on Excel (Microsoft) and GraphPad Prism 7.02 (Graph Pad) software was used for quantification.\nTo validate the effect of the pro-inflammatory cytokine Interleukin-1β as an osteoarthritis-mimetic in a chondrocyte cellular model and to test the effect of the mitochondrial calcium uniporter (MCU) ablation on chondrocyte function, the inventors measured chondrocyte function and mitochondrial function in SW1353 cells. […]"}, "SW1353 cells [3]": {"test_system": "SW1353 cells", "test": "Mitochondrial membrane potential (JC-10 ratio fluorescence 590/525 nm) in SW1353 cells", "details": "after 24 h of IL-1β vs control", "procedure": "To measure mitochondrial membrane potential, SW1353 cells were seeded in 96-well plates at a density of 8000 cells per well in Growth medium (DMEM high glucose, Gibco) with 10% fetal calf serum. Then, cells were loaded with the fluorescent mitochondrial membrane potential sensor JC-10. Fluorescence was acquired with MetaXpress Confocal (Molecular Devices) at following emission wavelengths: 590 nm (excitation at 540 nm) and 525 nm (excitation 490 nm), according to supplier's instructions. The ratio fluorescence at 590 nm/525 nm is proportional to change in the mitochondrial membrane potential."}, "SW1353 cells [4]": {"test_system": "SW1353 cells", "test": "Cell death, Annexin-V positive cells (IncuCyte) in SW1353 cells", "details": "after 5 days of IL-1β treatment vs control", "procedure": "To quantify the effect of Interleukin-1β on cell death in SW1353 cells, kinetic experiments of apoptosis were performed with the IncuCyte ZOOM instrument (Essen Bioscience, Ann Arbor, MI, USA). Cells were seeded at 50% confluence in 96-well-plate format in DMEM medium. After 24 h, cells were incubated with IncuCyte Annexin-V Green (4642), according to supplier's instructions and treated with IL-1β. Four images per well were collected at the indicated time using a 10× objective and bandwidth filters (Ex: 440/80 nm; Em: 504/44 nm). Data were exported as area (μm2) per well covered by Annexin-V positive objects and normalized for the total area covered by the cells."}}, "data": [{"substance": "IL-1β: pro-inflammatory cytokine Interleukin-1β used as an osteoarthritis-mimetic in SW1353 chondrocytes", "values": [{"measurement": "collagen-IIα1 content", "setting": "SW1353 cells [1]", "value": "strongly decreased"}, {"measurement": "expression of MMP3", "setting": "SW1353 cells [1]", "value": "increased"}, {"measurement": "expression of MMP13", "setting": "SW1353 cells [1]", "value": "increased"}, {"measurement": "mitochondrial Ca2+ rise stimulated by agonist (histamine)", "setting": "SW1353 cells [2]", "value": "decrease"}, {"measurement": "ratio fluorescence (590/525 nm) of mitochondrial membrane potential sensor JC10", "setting": "SW1353 cells [3]", "value": "significantly decreases"}, {"measurement": "Annexin-V positive cells (cell death)", "setting": "SW1353 cells [4]", "value": "significantly increased"}]}]}
